{"source": "patent US20050158805A1", "about": "“Toxicity test” (priority 2002, published 2005)", "key": {"liver spheroids": {"tested_on": "liver spheroids", "experiment": "Spheroid cell spreading inhibition test (SCSIT) using fresh liver spheroids", "assay_type": "cell-based, male Wistar rats", "conditions": "for SCSIT result (spheroid cell spreading inhibition): fresh liver spheroids, batches A-C; for concentrations at which liver spheroid cell spreading is inhibited: liver spheroids, read from tables", "method": "(§1) The inventors have developed a cell spreading inhibition test based on the observed spheroid cell growth, or “spreading” of cells in spheroids when the spheroids are grown on a suitable surface and at static state i.e. without shaking. […] This inhibition of cell spreading provides an indicator of toxicity.\n(§2) According to a first aspect of the invention, there is provided an in vitro toxicity assay comprising: • a) exposing a spheroid sample to a selected concentration of a compound to be assayed; • b) incubating the spheroid sample for a suitable period of time; and • c) observing if spheroid cell spreading inhibition takes place. […] However, if there is observable cell spreading from one or more of the spheroids in the sample, this is a cell spreading inhibition negative (−) result.\n(§3) In the following examples, fresh liver or HepG2 spheroids were used.\nLiver spheroids were prepared from the liver of male Wistar rats by a two-step collagenase perfusion method described by Seglen P.O. ((1976). Preparation of isolated rat liver cells. Methods Cell. Biol. 13, 29-38) and modified by Lazar, A.; Peshwa, M. V., Wu, F. J., Chi, C. M., Cerra, F. B., and Hu, W. S. (1995). Extended liver-specific functions of procine hepatocyte spheroids entrapped in collagen gel. In Vitro Cell Biol Anim. 31, 340-346). Viability of the isolated liver cells was determined by tyrpan blue dye exclusion i.e. an aliquot of isolated liver cells was mixed with an equal volume of trypan blue dye (1.0% w/v in isotonic saline) and incubated at room temperature for a minimum period of 5 minutes. Only isolated liver cell preparations with viability above 80% were used to prepare liver spheroids. The cell suspension was diluted with culture medium (hepatocyte medium supplemented with 5% FCS, […] L-glutamine, 2 ng/ml insulin, 100 U/ml penicillin and 100 μg/ml streptomycin sulfate) to give a cell density of 5×10^5 cells/ml. The diluted cell suspension was dispersed into 6-well plates, 3 ml/well. The plates were incubated at 37° C., in a 5% CO2 incubator on a gyrotatory shaker (New Brunswick) at an initial rotation speed of 85 rpm for the first 24 hr and 77 rpm thereafter. The plates were rotated at this speed for the duration of the study (up to 45 days, but typically 2-10 days). 1.5 ml of old medium was replaced with 2.0 ml fresh medium for each well every other day. Media exchange was carried out over the duration of the study (up to 45 days, but typically 2-10 days).\n(§4) 3 to 5 freshly prepared spheroids were transferred into each well of a 24 well plate and exposed to galactosamine at various concentrations as detailed in Tables 1 and 2. Two wells were used for each concentration of galactosamine. The spheroids were incubated in Hepatocyte medium (Sigma) supplemented with 10-15% FCS, […] L-glutamine, 100 U/ml penicillin and 100 μg/ml streptomycim sulfate, and placed in a 5% CO2 incubator at 37° C. and the effects on spheroid cell spreading inhibition observed after 48 hours exposure of the cells to galactosamine: […]"}, "HepG2 spheroids": {"tested_on": "HepG2 spheroids", "experiment": "Spheroid cell spreading inhibition test (SCSIT) using fresh HepG2 spheroids", "assay_type": "cell-based, Human", "conditions": "for SCSIT result (spheroid cell spreading inhibition): fresh HepG2 spheroids, batches A-C; for concentrations at which HepG2 spheroid cell spreading is inhibited: HepG2 spheroids, read from tables", "method": "as §1, §2, §3\nHepG2 cell line (Human Hepatocyte Carinomal cells, from ECACC) was cultured as a monolayer in a 75 cm^2 flask at an initial density of 10^2 cells/cm^2 in a culture medium containing MEM (Sigma) supplemented with 10% FBS, 200 nM L-Glutamine, 100 U/ml pencillin and 100 μg/ml streptomycin (GibcoBril). HepG2 cells of confluent flasks were detached by trypsin and pooled together to be counted by trypan blue dye excretion. The cell suspension was diluted with culture medium (MEM supplemented with 5% FBS, […] L-glutamine, 100 U/ml penicillin and 100 μg/ml streptomycin) to give 1×10^6 cell/ml cell suspension. The cell suspension was plated into 6-well plates, 3 ml/well. The plate was placed on a gyrotatory shaker (New Brunswick) at 83 rpm in a 37° C. CO2 incubator for the first 24 h, and then the rotation speed reduced to 77 rpm. After 6 DIV culture, spheroids were ready for use.\nas §4"}}, "data": [{"molecule": "O=C(O)Cc1ccccc1Nc1c(Cl)cccc1Cl", "note": "[diclofenac]", "values": [{"measurement": "SCSIT result (spheroid cell spreading inhibition)", "setting": "liver spheroids; 0.1 μM", "result": "−"}, {"measurement": "SCSIT result (spheroid cell spreading inhibition)", "setting": "liver spheroids; 1 μM", "result": "−"}, {"measurement": "SCSIT result (spheroid cell spreading inhibition)", "setting": "liver spheroids; 10 μM", "result": "−"}, {"measurement": "SCSIT result (spheroid cell spreading inhibition)", "setting": "liver spheroids; 100 μM", "result": "−"}, {"measurement": "SCSIT result (spheroid cell spreading inhibition)", "setting": "liver spheroids; 1000 μM", "result": "+"}, {"measurement": "spheroid cell spreading inhibition (FIG. 4A)", "setting": "liver spheroids; liver spheroid, 100 μM, 48 hours after exposure", "result": "no spheroid cell spreading inhibition is observed"}, {"measurement": "spheroid cell spreading inhibition (FIG. 4B)", "setting": "liver spheroids; liver spheroid, 1000 μM, 48 hours after exposure", "result": "spheroid cell spreading was inhibited"}, {"measurement": "concentrations at which liver spheroid cell spreading is inhibited", "setting": "liver spheroids", "result": "≥ 1000", "unit": "µM"}, {"measurement": "SCSIT result (spheroid cell spreading inhibition)", "setting": "HepG2 spheroids; 0.1 μM", "result": "−"}, {"measurement": "SCSIT result (spheroid cell spreading inhibition)", "setting": "HepG2 spheroids; 1 μM", "result": "−"}, {"measurement": "SCSIT result (spheroid cell spreading inhibition)", "setting": "HepG2 spheroids; 10 μM", "result": "−"}, {"measurement": "SCSIT result (spheroid cell spreading inhibition)", "setting": "HepG2 spheroids; 100 μM", "result": "−"}, {"measurement": "SCSIT result (spheroid cell spreading inhibition)", "setting": "HepG2 spheroids; 1000 μM", "result": "+"}, {"measurement": "concentrations at which HepG2 spheroid cell spreading is inhibited", "setting": "HepG2 spheroids", "result": "≥ 1000", "unit": "µM"}]}, {"molecule": "N[C@H]1C(O)O[C@H](CO)[C@H](O)[C@@H]1O", "note": "(stereo partly drawn) [galactosamine]", "values": [{"measurement": "SCSIT result (spheroid cell spreading inhibition)", "setting": "liver spheroids; 4 mM, 48 hours exposure", "result": "−"}, {"measurement": "SCSIT result (spheroid cell spreading inhibition)", "setting": "liver spheroids; 10 mM, 48 hours exposure", "result": "−"}, {"measurement": "SCSIT result (spheroid cell spreading inhibition)", "setting": "liver spheroids; 16 mM, 48 hours exposure", "result": "−"}, {"measurement": "SCSIT result (spheroid cell spreading inhibition)", "setting": "liver spheroids; 20 mM, 48 hours exposure", "result": "+"}, {"measurement": "SCSIT result (spheroid cell spreading inhibition)", "setting": "liver spheroids; 40 mM, 48 hours exposure", "result": "+"}, {"measurement": "spheroid cell spreading inhibition (FIG. 2B)", "setting": "liver spheroids; liver spheroid, 16 mM, 48 hours after exposure", "result": "no spheroid cell spreading inhibition is observed"}, {"measurement": "spheroid cell spreading inhibition (FIG. 2C)", "setting": "liver spheroids; liver spheroid, 40 mM, 48 hours after exposure", "result": "spheroid cell spreading was inhibited"}, {"measurement": "concentrations at which liver spheroid cell spreading is inhibited", "setting": "liver spheroids", "result": "≥ 20000", "unit": "µM"}, {"measurement": "SCSIT result (spheroid cell spreading inhibition)", "setting": "HepG2 spheroids; 4 mM, 48 hours exposure", "result": "−"}, {"measurement": "SCSIT result (spheroid cell spreading inhibition)", "setting": "HepG2 spheroids; 10 mM, 48 hours exposure", "result": "−"}, {"measurement": "SCSIT result (spheroid cell spreading inhibition)", "setting": "HepG2 spheroids; 16 mM, 48 hours exposure", "result": "+"}, {"measurement": "SCSIT result (spheroid cell spreading inhibition)", "setting": "HepG2 spheroids; 20 mM, 48 hours exposure", "result": "+"}, {"measurement": "SCSIT result (spheroid cell spreading inhibition)", "setting": "HepG2 spheroids; 40 mM, 48 hours exposure", "result": "+"}, {"measurement": "concentrations at which HepG2 spheroid cell spreading is inhibited", "setting": "HepG2 spheroids", "result": "≥ 16000", "unit": "µM"}]}, {"molecule": "CC(=O)Nc1ccc(O)cc1", "note": "[paracetamol]", "values": [{"measurement": "SCSIT result (spheroid cell spreading inhibition)", "setting": "liver spheroids; 5 μM", "result": "−"}, {"measurement": "SCSIT result (spheroid cell spreading inhibition)", "setting": "liver spheroids; 50 μM", "result": "−"}, {"measurement": "SCSIT result (spheroid cell spreading inhibition)", "setting": "liver spheroids; 500 μM", "result": "−"}, {"measurement": "SCSIT result (spheroid cell spreading inhibition)", "setting": "liver spheroids; 5 mM", "result": "−"}, {"measurement": "SCSIT result (spheroid cell spreading inhibition)", "setting": "liver spheroids; 50 mM", "result": "+"}, {"measurement": "spheroid cell spreading inhibition (FIG. 5A)", "setting": "liver spheroids; liver spheroid, 5 mM, 48 hours after exposure", "result": "no spheroid cell spreading inhibition is observed"}, {"measurement": "spheroid cell spreading inhibition (FIG. 5B)", "setting": "liver spheroids; liver spheroid, 50 mM, 48 hours after exposure", "result": "spheroid cell spreading was inhibited"}, {"measurement": "concentrations at which liver spheroid cell spreading is inhibited", "setting": "liver spheroids", "result": "≥ 50000", "unit": "µM"}, {"measurement": "SCSIT result (spheroid cell spreading inhibition)", "setting": "HepG2 spheroids; 5 μM", "result": "−"}, {"measurement": "SCSIT result (spheroid cell spreading inhibition)", "setting": "HepG2 spheroids; 50 μM", "result": "−"}, {"measurement": "SCSIT result (spheroid cell spreading inhibition)", "setting": "HepG2 spheroids; 500 μM", "result": "−"}, {"measurement": "SCSIT result (spheroid cell spreading inhibition)", "setting": "HepG2 spheroids; 5 mM", "result": "−"}, {"measurement": "SCSIT result (spheroid cell spreading inhibition)", "setting": "HepG2 spheroids; 50 mM", "result": "+"}, {"measurement": "concentrations at which HepG2 spheroid cell spreading is inhibited", "setting": "HepG2 spheroids", "result": "≥ 50000", "unit": "µM"}]}]}
